Here are results for 3 compounds from ChEMBL document CHEMBL5696442, “Discovery of type II inhibitors of TGFβ-activated kinase 1 (TAK1) and mitogen-activated protein kinase kinase kinase kinase 2 (MAP4K2)” (J Med Chem, 2015).

The target in assay [1] is DNA-PK/Ku70/Ku85 (Homo sapiens) (UniProt P78527+P12956+P13010). As to the kind of experiment: Inhibition of DNAPK ATP labeling site harbouring KGGSWIQEINVAEKNWYPR in human Huh-7 cell lysate at 1 uM by KiNativ Profiling analysis relative to control. It is filed as subcellular.
For assay [2], the target named is Serine/threonine-protein kinase/endoribonuclease IRE1 (Homo sapiens) (UniProt O75460). As to the kind of experiment: Inhibition of IRE1 Lys2 labeling site in human Huh-7 cells at 1 uM by KiNativ Profiling analysis relative to control. It is filed as cell-based.
In assay [3] the target is Mitogen-activated protein kinase 14 (Homo sapiens, UniProt Q16539). As to the kind of experiment: Inhibition of p38 alpha Lys2 labeling site in human A-375 cells at 5 uM by KiNativ Profiling analysis relative to control. It is filed as cell-based.
The target in assay [4] is T1, Serine/threonine-protein kinase D2 (Homo sapiens) (UniProt Q9BZL6).
T1 sequence (whole entry): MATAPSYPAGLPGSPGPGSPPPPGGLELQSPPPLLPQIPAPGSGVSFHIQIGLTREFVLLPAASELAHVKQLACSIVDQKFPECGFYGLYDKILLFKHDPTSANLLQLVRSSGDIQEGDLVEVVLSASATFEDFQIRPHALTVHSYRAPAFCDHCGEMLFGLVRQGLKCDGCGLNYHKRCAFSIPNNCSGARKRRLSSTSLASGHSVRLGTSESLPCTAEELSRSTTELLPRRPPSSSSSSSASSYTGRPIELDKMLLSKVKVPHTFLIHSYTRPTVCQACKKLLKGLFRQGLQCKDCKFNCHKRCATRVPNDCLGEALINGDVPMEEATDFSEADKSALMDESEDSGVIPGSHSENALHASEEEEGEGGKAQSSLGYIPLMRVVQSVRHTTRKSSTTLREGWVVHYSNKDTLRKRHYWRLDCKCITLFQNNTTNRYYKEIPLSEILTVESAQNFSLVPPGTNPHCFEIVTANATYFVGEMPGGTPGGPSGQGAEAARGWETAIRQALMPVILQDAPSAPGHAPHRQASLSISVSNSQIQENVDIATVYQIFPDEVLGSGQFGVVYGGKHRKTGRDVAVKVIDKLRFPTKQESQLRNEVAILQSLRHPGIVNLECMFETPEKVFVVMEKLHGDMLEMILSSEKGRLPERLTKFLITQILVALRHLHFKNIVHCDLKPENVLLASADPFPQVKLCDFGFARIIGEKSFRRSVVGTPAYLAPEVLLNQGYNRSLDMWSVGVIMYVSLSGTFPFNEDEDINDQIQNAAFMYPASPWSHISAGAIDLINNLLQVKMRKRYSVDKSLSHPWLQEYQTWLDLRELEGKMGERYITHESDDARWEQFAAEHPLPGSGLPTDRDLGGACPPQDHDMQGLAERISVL
As to the kind of experiment: Inhibition of PKD2 Lys1 labeling site in human A-375 cells at 5 uM by KiNativ Profiling analysis relative to control. It is filed as cell-based.

Assay [5] deals with T2, Dual specificity mitogen-activated protein kinase kinase 6 (Homo sapiens) (UniProt P52564).
T2 sequence (whole entry): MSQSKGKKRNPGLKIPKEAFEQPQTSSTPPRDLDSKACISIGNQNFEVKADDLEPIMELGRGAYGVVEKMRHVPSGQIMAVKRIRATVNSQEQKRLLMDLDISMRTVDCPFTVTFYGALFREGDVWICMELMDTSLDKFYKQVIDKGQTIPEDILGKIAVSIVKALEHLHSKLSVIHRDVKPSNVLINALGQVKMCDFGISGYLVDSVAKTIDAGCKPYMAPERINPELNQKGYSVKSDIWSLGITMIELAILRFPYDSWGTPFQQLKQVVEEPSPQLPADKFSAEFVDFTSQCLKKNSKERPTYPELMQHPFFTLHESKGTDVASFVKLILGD
As to the kind of experiment: Inhibition of MEK6 (unknown origin) at 1 uM by Ambit Kinomescan binding assay relative to control; values are per cent of control.

The target in assay [6] is T3, Mitogen-activated protein kinase kinase kinase 5 (Homo sapiens) (UniProt Q99683).
T3 sequence (whole entry): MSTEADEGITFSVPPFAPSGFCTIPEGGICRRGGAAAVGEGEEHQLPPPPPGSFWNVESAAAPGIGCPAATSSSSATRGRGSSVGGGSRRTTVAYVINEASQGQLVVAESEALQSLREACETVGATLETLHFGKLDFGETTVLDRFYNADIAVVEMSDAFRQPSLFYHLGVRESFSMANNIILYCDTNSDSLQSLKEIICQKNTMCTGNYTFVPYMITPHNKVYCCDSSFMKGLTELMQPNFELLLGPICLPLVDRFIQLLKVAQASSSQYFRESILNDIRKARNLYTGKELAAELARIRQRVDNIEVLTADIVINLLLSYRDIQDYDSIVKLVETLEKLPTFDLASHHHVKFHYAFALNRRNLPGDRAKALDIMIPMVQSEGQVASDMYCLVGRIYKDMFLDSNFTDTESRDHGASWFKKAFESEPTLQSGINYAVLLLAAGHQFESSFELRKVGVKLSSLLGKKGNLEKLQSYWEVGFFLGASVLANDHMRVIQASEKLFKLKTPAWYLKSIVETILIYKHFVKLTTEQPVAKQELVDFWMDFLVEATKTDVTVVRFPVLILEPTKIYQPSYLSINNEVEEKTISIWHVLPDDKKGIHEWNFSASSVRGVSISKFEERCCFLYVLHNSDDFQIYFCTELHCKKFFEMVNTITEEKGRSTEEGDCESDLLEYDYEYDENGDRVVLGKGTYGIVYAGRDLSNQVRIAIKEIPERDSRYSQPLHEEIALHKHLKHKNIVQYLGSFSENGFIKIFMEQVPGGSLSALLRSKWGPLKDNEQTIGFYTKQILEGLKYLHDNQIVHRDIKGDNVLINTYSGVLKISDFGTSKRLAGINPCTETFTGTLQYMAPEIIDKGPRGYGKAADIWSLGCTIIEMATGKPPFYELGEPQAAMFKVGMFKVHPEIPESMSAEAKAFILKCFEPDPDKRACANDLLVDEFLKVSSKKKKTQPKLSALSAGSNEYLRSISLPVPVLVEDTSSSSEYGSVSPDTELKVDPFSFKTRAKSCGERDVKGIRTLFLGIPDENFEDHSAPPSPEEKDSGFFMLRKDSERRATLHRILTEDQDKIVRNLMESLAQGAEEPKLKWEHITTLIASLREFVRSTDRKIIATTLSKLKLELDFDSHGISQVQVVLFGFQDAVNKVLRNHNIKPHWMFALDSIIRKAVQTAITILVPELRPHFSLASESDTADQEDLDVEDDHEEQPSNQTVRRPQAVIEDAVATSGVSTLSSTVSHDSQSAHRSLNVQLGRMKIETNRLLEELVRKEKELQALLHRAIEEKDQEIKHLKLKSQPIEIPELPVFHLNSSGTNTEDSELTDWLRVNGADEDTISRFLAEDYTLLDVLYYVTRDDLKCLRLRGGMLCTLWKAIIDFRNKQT
As to the kind of experiment: Inhibition of MAP3K5 Lys1 labeling site harbouring IAIKEIPER in human A-375 cells at 5 uM by KiNativ Profiling analysis relative to control. It is filed as cell-based.

The structures appear in SMILES notation.

Sequence of Mitogen-activated protein kinase 14 (Q16539 whole entry): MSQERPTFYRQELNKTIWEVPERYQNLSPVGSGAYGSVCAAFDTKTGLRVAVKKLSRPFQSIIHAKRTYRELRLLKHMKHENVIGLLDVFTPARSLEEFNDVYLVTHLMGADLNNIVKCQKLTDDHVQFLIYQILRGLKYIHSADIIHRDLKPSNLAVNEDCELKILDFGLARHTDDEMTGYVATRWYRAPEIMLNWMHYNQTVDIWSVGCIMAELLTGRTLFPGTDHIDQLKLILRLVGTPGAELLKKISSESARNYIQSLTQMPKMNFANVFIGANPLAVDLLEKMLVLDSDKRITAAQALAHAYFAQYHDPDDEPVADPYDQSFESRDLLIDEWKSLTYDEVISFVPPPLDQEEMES
Sequence of Serine/threonine-protein kinase/endoribonuclease IRE1 (Homo sapiens) (O75460 19-977 limits assumed): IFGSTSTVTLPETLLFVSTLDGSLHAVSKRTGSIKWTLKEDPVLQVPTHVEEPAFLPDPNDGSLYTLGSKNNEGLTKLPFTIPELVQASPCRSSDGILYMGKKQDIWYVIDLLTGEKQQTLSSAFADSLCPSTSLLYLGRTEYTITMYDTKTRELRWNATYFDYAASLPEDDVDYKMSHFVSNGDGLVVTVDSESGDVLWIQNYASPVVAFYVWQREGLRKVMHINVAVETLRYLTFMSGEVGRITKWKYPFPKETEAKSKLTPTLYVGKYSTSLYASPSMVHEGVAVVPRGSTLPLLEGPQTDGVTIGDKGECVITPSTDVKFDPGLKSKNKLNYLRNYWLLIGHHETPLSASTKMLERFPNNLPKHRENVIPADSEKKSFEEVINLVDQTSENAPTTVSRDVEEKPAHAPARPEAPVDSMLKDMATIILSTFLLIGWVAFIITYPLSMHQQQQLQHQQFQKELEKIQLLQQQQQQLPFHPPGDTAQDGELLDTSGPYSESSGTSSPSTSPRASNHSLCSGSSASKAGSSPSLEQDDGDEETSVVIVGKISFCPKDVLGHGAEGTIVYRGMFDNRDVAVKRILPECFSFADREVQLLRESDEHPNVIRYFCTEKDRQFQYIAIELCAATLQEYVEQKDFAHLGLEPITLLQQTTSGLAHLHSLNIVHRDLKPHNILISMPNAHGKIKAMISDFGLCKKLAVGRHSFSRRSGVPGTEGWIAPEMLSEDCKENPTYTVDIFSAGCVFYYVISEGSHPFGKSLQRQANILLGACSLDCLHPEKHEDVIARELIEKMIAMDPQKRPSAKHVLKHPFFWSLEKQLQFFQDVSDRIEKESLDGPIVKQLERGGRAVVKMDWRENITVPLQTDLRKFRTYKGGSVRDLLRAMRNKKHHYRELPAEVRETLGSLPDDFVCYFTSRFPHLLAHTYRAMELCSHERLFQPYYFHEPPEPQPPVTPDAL

A word on the inhibition: it is the relative decrease from the control value, in per cent. Consider `CNc1cc(Oc2cc(C(=O)Nc3cc(N4CCN(C)CC4)cc(C(F)(F)F)c3)ccc2C)ncn1`, for which the inhibition in assay [1] is 15.9%; in assay [2], -9.9%.
As to `CCN1CCN(Cc2ccc(NC(=O)c3ccc(C)c(/C=C/c4cnc5[nH]ccc5c4OC)c3)cc2C(F)(F)F)CC1`, the inhibition came to 52.4% in assay [3] and 2.1% in assay [4]. The same compound returned a residual activity in assay [5] of 100%.
Turning to `CCN1CCN(Cc2ccc(NC(=O)c3ccc(C)c(Oc4ccnc5[nH]ccc45)c3)cc2C(F)(F)F)CC1`, the inhibition in assay [6] is -0.6%.
